Measurements published in patent US7205309B2, “Quinazoline derivatives” (Hoffmann-La Roche Inc., priority 2002, dated 2007).

Molecular target: T1, recombinant mouse NPY5-receptor (mNPY5) (Mus musculus, UniProt O70342)
T1 construct: The full-length cDNA encoding the mouse NPY5 (mNPY5) receptor was amplified from mouse brain cDNA; expressed in transfected cells; membranes used
T1 sequence (O70342 1-466): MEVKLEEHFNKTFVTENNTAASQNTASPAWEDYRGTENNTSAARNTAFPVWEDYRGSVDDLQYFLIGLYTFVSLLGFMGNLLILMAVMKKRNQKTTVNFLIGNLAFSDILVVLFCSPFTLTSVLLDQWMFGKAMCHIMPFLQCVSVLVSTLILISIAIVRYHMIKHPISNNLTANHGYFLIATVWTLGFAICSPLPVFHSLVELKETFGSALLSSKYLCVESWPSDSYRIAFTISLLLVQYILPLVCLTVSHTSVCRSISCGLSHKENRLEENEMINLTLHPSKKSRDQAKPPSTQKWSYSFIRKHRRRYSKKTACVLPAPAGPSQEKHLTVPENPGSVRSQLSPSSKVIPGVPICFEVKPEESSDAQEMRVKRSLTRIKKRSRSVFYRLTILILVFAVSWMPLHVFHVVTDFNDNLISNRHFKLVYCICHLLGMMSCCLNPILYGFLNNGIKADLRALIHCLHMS
Assay: Radioligand competition binding
Details: membranes of HEK293 cells expressing mNPY5; 100 pM [125I]labeled peptide YY; 1 h at 22° C.; read-out: NPY5-R (mouse) IC50
From the text: The full-length cDNA encoding the mouse NPY5 (mNPY5) receptor was amplified from mouse brain cDNA using specific primers, designed based on the published sequence, and Pfu DNA-Polymerase. The amplification product was subcloned into the mammalian expression vector pcDNA3 using Eco RI and XhoI restriction sites. Positive clones were sequenced and one clone, encoding the published sequence was selected for generation of stable cell clones.
Human embryonic kidney 293 (HEK293) cells were transfected with 10 μg mNPY5 DNA using the lipofectamine reagent. Two days after transfection, geneticin selection (1 mg/ml) was initiated and several stable clones were isolated. One clone was further used for pharmacological characterization.
Human embryonic kidney 293 cells (HEK293), expressing recombinant mouse NPY5-receptor (mNPY5) were broken by three freeze/thawing cycles in hypotonic Tris buffer (5 mM, pH 7.4, 1 mM MgCl2), homogenized and centrifuged at 72,000×g for 15 min. The pellet was washed twice with 75 mM Tris buffer, pH 7.4, containing 25 mM MgCl2 and 250 mM sucrose, 0.1 mM phenylmethylsulfonylfluoride and 0.1 mM 1,10-pheneanthrolin, resuspended in the same buffer and stored in aliquots at −80° C. Protein was determined according to the method of Lowry using bovine serum albumine (BSA) as a standard. […]

IC50 | SMILES
9 nM | Cc1nc(N2CCCC2)c2ccc(OCc3ccc(C#N)cc3)cc2n1 [Compound 3, 4-(2-methyl-4-pyrrolidin-1-yl-quinazolin-7-yloxymethyl)-benzonitrile]
3 nM | Cc1nc(N2CCCC2)c2ccc(NCC(C)C)cc2n1 [Compound 24, isobutyl-(2-methyl-4-pyrrolidin-1-yl-quinazolin-7-yl)-amine]
